Measurements taken from patent US12594293B2, “Use of 6-thio-dG to treat therapy-resistant telomerasepositive pediatric brain tumors” (The Board of Regents of The University of Texas System, priority 2018, dated 2026).

Columns and labels:
Assay type in all cases: cell-based, human
[1] = test system: HFF+hTERT cells; assay: Senescence-associated β-galactosidase assay; conditions: 3 μM for 23 days
Excerpt: (§1) Senescence assay. Senescence-associated β-galactosidase was detected as previously described (2). Cells were observed under the microscope until the development of the blue color and the reaction was terminated. Images were captured; stained and unstained cells were counted from multiple fields to quantitate the percent senescent cells.

[2] = test system: HFF cells; assay: Senescence-associated β-galactosidase assay; conditions: 3 μM for 23 days
Excerpt: as §1

[3] = test system: HeLa cells; assay: Cell cycle analysis (PI flow cytometry)
Protocol: (§2) Cell cycle analysis. […] Cells were then washed and stained with propidium iodide (PI) solution containing 25 μg/mL PI (Sigma), and 100 μg/mL Ribonuclease-A (Sigma) for 30 minutes in the dark. Flow cytometry was performed on BD FACS Canto II and cells were analyzed using FlowJo v.10 (FlowJo, USA) software.

[4] = test system: MB004 cells; assay: Cell cycle analysis (PI flow cytometry); conditions: 3 μM for 3 days
Protocol: as §2

`Nc1nc2c(ncn2[C@H]2C[C@H](O)[C@@H](CO)O2)c(=S)[nH]1` [6-thio-dG, 6-thio-2′-deoxyguanosine] was tested, and the “cells with senescence phenotype (SA-β-gal-positive)” value [1] was 30%, the “cells SA-β-gal-positive” value [2] was 7% and the “effect on cell cycle progression after drug removal” value ([3]; 3 μM 3 days, then drug removed) was “persisted several days after drug withdrawal”. For the same compound, the cell cycle progression ([3]; 3 μM, three days) was “caused G2/M arrest”, the cell cycle populations ([3]; continuous treatment, 3 μM) was “sharp increase in G2/M, >4n and sub-G1 cell populations” and the cell cycle populations [4] was “increase in sub-G1 and G2/M cell populations”.
